Test results as given in PubChem BioAssay AID652053 (Broad Institute, 2013).

Test system: Huh7 psiCHECK-miR122 Renilla luciferase reporter, 48 h
Experiment: suppression of miR-122 activity, Renilla luciferase sensor – cell-based, Huh7 psiCHECK-miR122, cherry-pick, dose response (AID 652053)

**Q.** How did the AC40 turn out when Cc1ccc(NS(=O)(=O)c2cc3c(cc2C)NC(=O)CO3)cc1 was run?
**A.** 5.89 µM

**Q.** For C[C@H](CO)N1C[C@H](C)[C@@H](CN(C)Cc2ccc(Cl)c(Cl)c2)Oc2c(NS(=O)(=O)c3cccs3)cccc2C1=O, which AC40 is on record?
**A.** 2.7 µM

**Q.** For C[C@@H]1CN([C@H](C)CO)C(=O)Cc2cc(NC(=O)Nc3ccccc3)ccc2O[C@@H]1CN(C)C(=O)Nc1cccc2ccccc12, which AC40 is on record?
**A.** 0.756 µM

**Q.** Which AC40 does the source give for C[C@H](CO)N1C[C@H](C)[C@@H](CN(C)C(=O)Nc2ccc(F)cc2)Oc2c(NS(=O)(=O)c3ccccc3)cccc2C1=O here?
**A.** 20.4 µM

**Q.** With Cc1ccc(S(=O)(=O)N(CC(=O)N2CCC(C)CC2)c2cccc(C)c2)cc1 as the molecule, how does the AC40 read?
**A.** 12 µM

**Q.** Which AC40 does the source give for CCNS(=O)(=O)c1ccc(NS(=O)(=O)c2cc(C)ccc2C)cc1 here?
**A.** 1.86 µM

**Q.** COc1ccc(C(C)(C)C)cc1NS(=O)(=O)c1cccc2cccnc12 was tested. Which AC40 did it give?
**A.** 2.14 µM

**Q.** With Cc1cc(Cl)c(S(=O)(=O)NCc2ccccc2)cc1OCC(N)=O as the molecule, how does the AC40 read?
**A.** 8.54 µM

**Q.** For O=C1C(Oc2ccccc2)C(c2ccc3c(c2)OCO3)N1CCc1ccc(F)cc1 (centres undefined), which AC40 is on record?
**A.** 8.01 µM

**Q.** With CC(C)c1ccc(NC(=S)NCc2cccs2)cc1 as the molecule, how does the AC40 read?
**A.** 2.8 µM

**Q.** For C[C@@H]1CN([C@H](C)CO)C(=O)Cc2cc(NC(=O)Nc3ccc(C(F)(F)F)cc3)ccc2O[C@@H]1CN(C)C(=O)Nc1cccc2ccccc12, which AC40 is on record?
**A.** < 0.26 µM

**Q.** Which AC40 does the source give for CCOc1ccc(Br)cc1S(=O)(=O)NC1CCCC1 here?
**A.** 1.29 µM

**Q.** For CCc1ccc(NC(=O)Cc2cn(C)c3ccccc23)cc1, which AC40 is on record?
**A.** 28.8 µM

**Q.** CCOC(=O)c1cc(S(=O)(=O)NC2CCCCC2)cn1C was tested. Which AC40 did it give?
**A.** 5.77 µM

**Q.** How did the AC40 turn out when CCCCn1c(NC(=O)c2ccc(Br)o2)c(S(=O)(=O)c2ccccc2)c2nc3ccccc3nc21 was run?
**A.** 25.7 µM

**Q.** For COc1ccc(S(=O)(=O)Nc2cc(C)c(O)c(S(=O)(=O)c3ccccc3)c2)cc1, which AC40 is on record?
**A.** 29.6 µM

**Q.** With Cc1ccccc1S(=O)(=O)N1CC[C@@H]2[C@@H](CO)Nc3ccc(-c4ccc(F)cc4)cc3[C@@H]21 as the molecule, how does the AC40 read?
**A.** 1 µM

**Q.** Which AC40 does the source give for O=S(=O)(NCCOCC(F)(F)C(F)F)c1ccc2oc3ccccc3c2c1 here?
**A.** 15.3 µM

**Q.** How did the AC40 turn out when COc1ccc(F)cc1S(=O)(=O)NC1CCCCCC1 was run?
**A.** 5.11 µM

**Q.** For Cc1cc(C(C)(C)C)cc(S(=O)(=O)Nc2ccc(C(=O)O)cc2)c1C, which AC40 is on record?
**A.** 9.72 µM

**Q.** Cc1ccc(NC(=O)Cc2cn(C)c3ccccc23)cc1F was tested. Which AC40 did it give?
**A.** 7.09 µM

**Q.** For COc1ccc(NC(=O)Nc2cccc3c2O[C@H](CN(C)Cc2ccc4c(c2)OCO4)[C@@H](C)CN([C@H](C)CO)C3=O)cc1, which AC40 is on record?
**A.** 22.8 µM

**Q.** How did the AC40 turn out when C[C@H](CO)N1C[C@H](C)[C@H](CN(C)Cc2ccc(C(=O)Nc3ccccc3N)cc2)Oc2ccc(NC(=O)NC3CCCCC3)cc2CC1=O was run?
**A.** 16.2 µM

**Q.** Which AC40 does the source give for Cc1cccc(NS(=O)(=O)c2ccc(-c3cnc(C4CC4)o3)cc2)c1 here?
**A.** 2.13 µM

**Q.** Which AC40 does the source give for CCOC(=O)c1cc(S(=O)(=O)NCCc2ccccc2)cn1C here?
**A.** 3.84 µM

**Q.** With Cc1ccc(S(=O)(=O)Nc2ccccc2-c2ccccc2)cc1 as the molecule, how does the AC40 read?
**A.** 12.4 µM

**Q.** For CCc1ccc(-c2cc(C)no2)cc1S(=O)(=O)NCCc1ccc(S(N)(=O)=O)cc1, which AC40 is on record?
**A.** 4.08 µM

**Q.** COc1ccc(C(C)(C)C)cc1S(=O)(=O)NCC1CCCO1 (centres undefined) was tested. Which AC40 did it give?
**A.** 0.329 µM

**Q.** With O=S(=O)(NCc1ccccc1)c1ccc2c(c1)OCCO2 as the molecule, how does the AC40 read?
**A.** 3.42 µM

**Q.** Which AC40 does the source give for COc1ccccc1-c1nnc2sc(-c3ccc(N(C)C)cc3)nn12 here?
**A.** 7.44 µM

**Q.** With COc1ccc(S(=O)(=O)NCc2ccccn2)cc1NC(=O)c1ccccc1C as the molecule, how does the AC40 read?
**A.** 10.2 µM

**Q.** Which AC40 does the source give for Cc1cccc(C)c1NC(=S)NC(C)CCc1ccccc1 (centres undefined) here?
**A.** 17 µM

**Q.** How did the AC40 turn out when COc1ccc(NC(=O)Cc2cccc(F)c2)cc1S(=O)(=O)Nc1ccccc1Cl was run?
**A.** 4.83 µM

**Q.** COc1cccc(C(=O)N2C[C@H]3[C@@H](c4ccccc42)[C@H](CO)N3C(=O)c2ccc(F)cc2)c1 was tested. Which AC40 did it give?
**A.** 33.6 µM

**Q.** For COc1ccccc1C(=O)Nc1ccc2c(c1)C(=O)N(C)[C@H]1CC[C@@H](CC(=O)NCc3ccc(Cl)c(Cl)c3)O[C@@H]1CO2, which AC40 is on record?
**A.** 2.85 µM

**Q.** For COc1ccc(-c2ccc3c(c2)CN(C(=S)NCCc2ccccc2)Cc2cnnn2-3)cc1, which AC40 is on record?
**A.** 2.2 µM

**Q.** For Cc1ccc(S(=O)(=O)Nc2ccc3c(c2)CC(=O)N([C@H](C)CO)C[C@H](C)[C@H](CN(C)Cc2ccc(C(=O)Nc4ccccc4N)cc2)O3)cc1, which AC40 is on record?
**A.** 6.79 µM

**Q.** Which AC40 does the source give for COc1ccc(C(=O)NC(=S)Nc2ccc(S(=O)(=O)Nc3cc(OC)ncn3)cc2)cc1 here?
**A.** 4.82 µM

**Q.** CCOc1ccccc1C(=O)N1CCN(c2cccc(Cl)c2)CC1 was tested. Which AC40 did it give?
**A.** 11.6 µM
